Legend:
[1] = tested on: Eya; assay: Eya phosphatase activity pNPP screen, plate controls; assay type: biochemical; settings: plate control
Description: Phosphatase Activity Assay. Phosphatase activity of Eya is measured using the p-nitrophenyl phosphate (pNPP) assay. In this assay, reaction mixtures of approximately 60 uL in 20 mM MES (pH 5.5), various concentrations of pNPP and cations are pre-equilibrated at 30° C. for 10 minutes. The assay is initiated by the addition of 0.3 ug of enzyme in 20 mM Tris (pH 8.0) and 150 mM NaCl. The reaction mixture is incubated for 20 minutes, and then quenched with 100 uL of 0.4 M EDTA, pH 10.0. Release of p-nitrophenol (pNP) is monitored by measuring absorbance at a wavelength of 410 (A410) and extrapolating the values into the Michaelis-Menten equation using SIGMAPLOT (SPSS Science, Chicago, Ill.). pNP release can be plotted as a function of time when various enzyme concentrations are used.
The protocol is substantially that described in references 4, 17 and 18. Eya phosphatase activity is measured using the model chromogenic substrate p-nitro-phenylphosphate (pNPP) as described. […] To ensure data quality and assay robustness, the Z value is used. The Z value is based on the difference between the signal of the positive control (ie, no test compound) and that of the negative control (no Eya protein or polypeptide). The Z value incorporates the standard deviation of each signal. A Z value of 1.0 is considered perfect, and Z values above 0.5 are generally considered ideal for HTS. […] In both the primary and secondary screen, every plate also contains three additional controls: 20 mM Na-o-vanadate (which inhibits Eya), 20 mM EDTA (which inhibits 100% of Eya activity) and 50 mM NaF (which inhibits Eya).

[2] = target: T1, human SIX6 (UniProt O95475)
T1 sequence: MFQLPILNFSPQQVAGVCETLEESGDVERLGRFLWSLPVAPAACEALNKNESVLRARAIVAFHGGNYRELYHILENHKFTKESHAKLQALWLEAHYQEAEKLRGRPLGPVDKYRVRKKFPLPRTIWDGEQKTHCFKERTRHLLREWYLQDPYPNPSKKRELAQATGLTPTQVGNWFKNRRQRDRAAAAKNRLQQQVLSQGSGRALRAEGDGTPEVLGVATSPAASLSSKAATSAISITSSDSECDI

[3] = tested on: T2, Six2 fragment derived from mouse Six protein (SEQ ID NO. 6)
T2 sequence: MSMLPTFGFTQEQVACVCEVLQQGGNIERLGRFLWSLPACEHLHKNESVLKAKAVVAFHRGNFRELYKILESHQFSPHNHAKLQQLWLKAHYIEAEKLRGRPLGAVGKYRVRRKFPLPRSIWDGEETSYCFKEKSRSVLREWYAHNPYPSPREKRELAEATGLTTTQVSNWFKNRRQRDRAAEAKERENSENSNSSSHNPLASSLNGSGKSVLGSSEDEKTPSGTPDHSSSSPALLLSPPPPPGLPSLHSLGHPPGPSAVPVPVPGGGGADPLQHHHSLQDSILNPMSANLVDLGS

[4] = tested on: T3, histone H2AX C-terminus peptide (KKATQASQEpY)
T3 sequence: KKATQASQEY

[F-].[Na+] [NaF]
inhibition of Eya ([1]; 50 mM NaF): inhibits Eya

Full-length murine Eya3
kcat of Eya3 (dephosphorylation of the H2AX-pY peptide, malachite-green type phosphate release), with stoichiometric SIX6 [2]: The interaction with these SIX proteins increases the kcat of Eya3, while the Km values remain relatively similar.
kcat of Eya3 (dephosphorylation of the H2AX-pY peptide, malachite-green type phosphate release), with stoichiometric SIX2 [3]: The interaction with these SIX proteins increases the kcat of Eya3, while the Km values remain relatively similar.
catalytic rate of dephosphorylation of the tyrosine-phosphorylated H2AX peptide [4]: The ability of Eya3 to dephosphorylate a tyrosine-phosphorylated peptide derived from H2AX was monitored in the presence or absence of stoichiometric amounts of either SIX2 or SIX6. The catalytic rate at increasing concentrations of H2AX-pY peptide was measured.

[Na+].[Na+].[Na+].[O]=[V]([O-])([O-])[O-] [Na-o-vanadate]
inhibition of Eya ([1]; 20 mM Na-o-vanadate): inhibits Eya

O=C(O)CN(CCN(CC(=O)O)CC(=O)O)CC(=O)O [EDTA]
inhibition of Eya activity ([1]; 20 mM EDTA): 100%
